This passage reports AC50 results from patent publication US20250262201A1, “COMPOUNDS AND METHODS USEFUL FOR STABILIZING PHENYLALANINE HYDROXYLASE MUTATIONS” (Agios Pharmaceuticals, Inc., priority 2022, published 2025).

A value given as a limit tells only on which side of the number the result lay.

Usually AC50 stands for the concentration giving half of the maximal activity seen.

The target of this assay is T1, human PAH with the R408W mutation (Homo sapiens, UniProt P00439, R408W).
T1 construct: expressed in transfected cells
T1 sequence (P00439 1-452 R408W): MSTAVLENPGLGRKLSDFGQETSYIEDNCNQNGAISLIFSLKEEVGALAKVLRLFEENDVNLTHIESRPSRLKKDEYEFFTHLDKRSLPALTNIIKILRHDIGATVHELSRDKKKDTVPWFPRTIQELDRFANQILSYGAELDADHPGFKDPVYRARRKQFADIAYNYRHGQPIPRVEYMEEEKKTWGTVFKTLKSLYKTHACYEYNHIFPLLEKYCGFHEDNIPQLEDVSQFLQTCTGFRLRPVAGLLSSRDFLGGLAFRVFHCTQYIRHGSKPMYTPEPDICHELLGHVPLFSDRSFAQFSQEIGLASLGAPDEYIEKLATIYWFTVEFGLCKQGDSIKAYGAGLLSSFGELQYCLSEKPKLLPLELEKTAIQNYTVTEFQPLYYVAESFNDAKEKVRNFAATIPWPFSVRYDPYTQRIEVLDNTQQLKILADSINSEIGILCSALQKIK
Kind of assay: Cell Based Phenylalanine Flux Assay. As to conditions: A375 cells expressing human R408W PAH; 24 hrs compound incubation; 13C-Tyrosine by LC-MS; average where tested multiple times; read-out: AC50.
As for `O=C(c1cnn2cc(Br)ccc12)N1CCc2[nH]cnc2[C@H]1c1cc2ccccc2cn1` [Example 352, (R)-(6-bromopyrazolo[1,5-a]pyridin-3-yl)(4-(isoquinolin-3-yl)-6,7-dihydro-1H-imidazo[4,5-c]pyridin-5(4H)-yl)methanone], the half-maximal activity concentration (AC50) was less than 500 nM.

Take `O=C(c1ncn2ccccc12)N1CCc2[nH]cnc2[C@H]1c1cc2ccccc2cn1` [Example 353, (R)-imidazo[1,5-a]pyridin-1-yl(4-(isoquinolin-3-yl)-6,7-dihydro-1H-imidazo[4,5-c]pyridin-5(4H)-yl)methanone]: the AC50 is less than 500 nM. As for `O=C(c1ocnc1-c1ccccn1)N1CCc2[nH]cnc2[C@H]1c1cc2ccccc2cn1` [Example 354, (R)-(4-(isoquinolin-3-yl)-6,7-dihydro-1H-imidazo[4,5-c]pyridin-5(4H)-yl)(4-(pyridin-2-yl)oxazol-5-yl)methanone], the AC50 is less than 500 nM. The same measure for `O=C(c1cnn2c(Br)cccc12)N1CCc2[nH]cnc2[C@H]1c1cc2ccccc2cn1` [Example 355, (R)-(7-bromopyrazolo[1,5-a]pyridin-3-yl)(4-(isoquinolin-3-yl)-6,7-dihydro-1H-imidazo[4,5-c]pyridin-5(4H)-yl)methanone]: less than 500 nM; for `O=C(c1cnn2ccc(Br)cc12)N1CCc2[nH]cnc2[C@H]1c1cc2ccccc2cn1` [Example 356, (R)-(5-bromopyrazolo[1,5-a]pyridin-3-yl)(4-(isoquinolin-3-yl)-6,7-dihydro-1H-imidazo[4,5-c]pyridin-5(4H)-yl)methanone]: less than 500 nM; for `O=C(c1cnn2cccc(F)c12)N1CCc2[nH]cnc2[C@H]1c1cc2ccccc2cn1` [Example 357, (R)-(4-fluoropyrazolo[1,5-a]pyridin-3-yl)(4-(isoquinolin-3-yl)-6,7-dihydro-1H-imidazo[4,5-c]pyridin-5(4H)-yl)methanone]: less than 500 nM.

Turning to `O=C(c1nsc2ccccc12)N1CCc2[nH]cnc2[C@H]1c1cc2ccccc2cn1` [Example 358, (R)-benzo[d]isothiazol-3-yl(4-(isoquinolin-3-yl)-6,7-dihydro-1H-imidazo[4,5-c]pyridin-5(4H)-yl)methanone], the AC50 is less than 500 nM. In the case of `O=C(c1n[nH]c2ccccc12)N1CCc2[nH]cnc2[C@H]1c1cc2ccccc2cn1` [Example 359, (3a,7a-dihydro-1H-indazol-3-yl)((R)-4-(isoquinolin-3-yl)-6,7-dihydro-1H-imidazo[4,5-c]pyridin-5(4H)-yl)methanone], the AC50 is less than 500 nM. For `Cn1nc(C(=O)N2CCc3[nH]cnc3[C@H]2c2cc3ccccc3cn2)c2ccccc21` [Example 360, (R)-(4-(isoquinolin-3-yl)-6,7-dihydro-1H-imidazo[4,5-c]pyridin-5(4H)-yl)(1-methyl-1H-indazol-3-yl)methanone], the AC50 was less than 500 nM. For `Cc1nnc(C(=O)N2CCc3[nH]cnc3[C@H]2c2cc3ccccc3cn2)s1` [Example 361, (R)-(4-(isoquinolin-3-yl)-6,7-dihydro-1H-imidazo[4,5-c]pyridin-5(4H)-yl)(5-methyl-1,3,4-thiadiazol-2-yl)methanone], the AC50 lay in the range of 500 to 1000 nM. The figure for `O=C(c1ccn2ncccc12)N1CCc2[nH]cnc2[C@H]1c1cc2ccccc2cn1` [Example 362, (R)-(4-(isoquinolin-3-yl)-6,7-dihydro-1H-imidazo[4,5-c]pyridin-5(4H)-yl)(pyrrolo[1,2-b]pyridazin-5-yl)methanone] is less than 500 nM; for `CN(C)C(=O)c1nnc(N2CCc3[nH]cnc3[C@H]2c2cc3ccccc3cn2)o1` [Example 363, (R)-5-(4-(isoquinolin-3-yl)-6,7-dihydro-1H-imidazo[4,5-c]pyridin-5(4H)-yl)-N,N-dimethyl-1,3,4-oxadiazole-2-carboxamide] it is 500 to 1000 nM. For the compound `O=C(c1nnc(-c2ccccc2)s1)N1CCc2[nH]cnc2[C@H]1c1cc2ccccc2cn1` [Example 364, (R)-(4-(isoquinolin-3-yl)-6,7-dihydro-1H-imidazo[4,5-c]pyridin-5(4H)-yl)(5-phenyl-1,3,4-thiadiazol-2-yl)methanone], the AC50 was less than 500 nM.
